The values that follow are results of earlier work, collected in PMC4703502 (Pharmacology & therapeutics, 2015).

Read-outs that look alike come from different tables or passages of the source.

In one data set the test system is fertility. As to conditions: ref Tash et al., 2008.
In the next data set the test system is inhibin B. As to conditions: in vivo; ref Tash et al., 2008a.
Another data set has as its system spermatozoa. As to conditions: ref O’Rand & Widgren, 2012.

Turning to `CC1(C)CC=C(c2cnc3ccccc3c2)c2cc(C(=O)Nc3ccc(C(=O)O)cc3)ccc21` [BMS-195614], in the data set on spermatogenesis (tested in vivo, ref Chung et al., 2013), the effect on spermatogenesis result is “no effect”.

Turning to BMS-189453, in the data set with spermatogenesis (ref Chung et al., 2011), the effect on spermatogenesis entry was “inhibit spermatogenesis”.

Consider `O=C(NCCCCCCCCNC(=O)C(Cl)Cl)C(Cl)Cl` [WIN 18,446], for which the effect on spermatogenesis entry with spermatogenesis (ref Amory et al., 2011) is given as “completely stops spermatogenesis”.

Regarding `O=C(O)/C=C/c1nn(Cc2ccc(Cl)cc2Cl)c2cc(C(F)(F)F)ccc12` [Gamendazole], the fertility recovery in the data set with fertility (daily treatment with 6 mg/kg during 7 days) is on record as 29%. Also, in the data set with fertility (rats, 3 mg/kg single oral dose), the fertility recovery result was “complete recovery” and the infertility entry is reported as “not complete infertility”. For the same molecule, the “serum levels of inhibin B” value in the data set with inhibin B is on record as “fall below measurable levels”.

B1: SEMG1: semenogelin, seminal plasma protein that binds EPPIN on the sperm surface (protein, UniProt P04279 24-462, looked up)
Semenogelin-1: QKGGSKGRLPSEFSQFPHGQKGQHYSGQKGKQQTESKGSFSIQYTYHVDANDHDQSRKSQQYDLNALHKTTKSQRHLGGSQQLLHNKQEGRDHDKSKGHFHRVVIHHKGGKAHRGTQNPSQDQGNSPSGKGISSQYSNTEERLWVHGLSKEQTSVSGAQKGRKQGGSQSSYVLQTEELVANKQQRETKNSHQNKGHYQNVVEVREEHSSKVQTSLCPAHQDKLQHGSKDIFSTQDELLVYNKNQHQTKNLNQDQQHGRKANKISYQSSSTEERRLHYGENGVQKDVSQSSIYSQTEEKAQGKSQKQITIPSQEQEHSQKANKISYQSSSTEERRLHYGENGVQKDVSQRSIYSQTEKLVAGKSQIQAPNPKQEPWHGENAKGESGQSTNREQDLLSHEQKGRHQHGSHGGLDIVIIEQEDDSDRHLAQHLNNDRNPLFT
Regarding B1, in the data set on spermatozoa (3μM SEMG1), the “decrease in internal calcium levels” value is listed as > 30%. Besides, the “time to decrease in internal pH” value in the data set on spermatozoa (SEMG1 bound to EPPIN on the sperm surface) is on record as “less than 1 minute”.
